This note sets out measurements from patent US12240839B2, “Cyclobutyl dihydroquinoline sulfonamide compounds” (AMGEN INC., priority 2020, dated 2025).

The subject of the first data set is CYP3A4. In words: Human CYP3A4 induction assay (mRNA, cryopreserved human hepatocytes). As to conditions: 10 uM test compound, 72 hours, percent of control (rifampin positive control).
In the case of `COc1cc(C2CCC2)ccc1-n1c(=O)ccc2cc(S(=O)(=O)Nc3ncco3)ccc21` (atropisomer, axis not shown; (P)) [Example 29, (P)-1-(4-cyclobutyl-2-methoxyphenyl)-N-(oxazol-2-yl)-2-oxo-1,2-dihydroquinoline-6-sulfonamide], the “Hu CYP3A4 mRNA Induction (10 uM POC)” value came out at 34.63%.

On to `COc1cc(C2CCC2)c(Cl)cc1-n1c(=O)ccc2cc(S(=O)(=O)Nc3ncco3)ccc21` (atropisomer, axis not shown; (P)) [Example 32, (P)-1-(5-chloro-4-cyclobutyl-2-methoxyphenyl)-N-(oxazol-2-yl)-2-oxo-1,2-dihydroquinoline-6-sulfonamide], for which the “Hu CYP3A4 mRNA Induction (10 uM POC)” value turned out to be 88%.

For `COc1cc(C2CCC2)c(C)cc1-n1c(=O)ccc2cc(S(=O)(=O)Nc3ncco3)ccc21` (atropisomer, axis not shown; (P)) [Example 34, (P)-1-(4-cyclobutyl-2-methoxy-5-methylphenyl)-N-(oxazol-2-yl)-2-oxo-1,2-dihydroquinoline-6-sulfonamide], the “Hu CYP3A4 mRNA Induction (10 uM POC)” value is on record as 69.54%.

With `COc1cc([C@H]2C[C@H](C(F)(F)F)C2)ccc1-n1c(=O)ccc2cc(S(=O)(=O)Nc3ccon3)ccc21` (atropisomer, axis not shown; (P)) [Example 35, trans-(P)—N-(isoxazol-3-yl)-1-(2-methoxy-4-(3-(trifluoromethyl)cyclobutyl)phenyl)-2-oxo-1,2-dihydroquinoline-6-sulfonamide], the “Hu CYP3A4 mRNA Induction (10 uM POC)” value is listed as 13.33%.

Regarding `COc1cc([C@H]2C[C@H](C(F)(F)F)C2)ccc1-n1c(=O)ccc2cc(S(=O)(=O)Nc3ncccn3)ccc21` (atropisomer, axis not shown; (P)) [Example 36, trans-(P)-1-(2-methoxy-4-((1R,3R)-3-(trifluoromethyl)cyclobutyl)phenyl)-2-oxo-N-(pyrimidin-2-yl)-1,2-dihydroquinoline-6-sulfonamide], the “Hu CYP3A4 mRNA Induction (10 uM POC)” value came out at 19.16%.

`COc1cc([C@H]2C[C@H](C(F)(F)F)C2)ccc1-n1c(=O)ccc2cc(S(=O)(=O)Nc3cccnn3)ccc21` (atropisomer, axis not shown; (P)) [Example 38, trans-(P)-1-(2-methoxy-4-(3-(trifluoromethyl)cyclobutyl)phenyl)-2-oxo-N-(pyridazin-3-yl)-1,2-dihydroquinoline-6-sulfonamide]: the “Hu CYP3A4 mRNA Induction (10 uM POC)” value is 4.43%.

On to `COc1cc([C@H]2C[C@H](C(F)(F)F)C2)c(F)cc1-n1c(=O)ccc2cc(S(=O)(=O)Nc3cccnn3)ccc21` (atropisomer, axis not shown; (P)) [Example 39, trans-(P)-1-(5-fluoro-2-methoxy-4-(3-(trifluoromethyl)cyclobutyl)phenyl)-2-oxo-N-(pyridazin-3-yl)-1,2-dihydroquinoline-6-sulfonamide], for which the “Hu CYP3A4 mRNA Induction (10 uM POC)” value worked out at 21.68%.

As for `COc1cc([C@H]2C[C@H](C(F)(F)F)C2)c(F)cc1-n1c(=O)ccc2cc(S(=O)(=O)Nc3ccon3)c(F)cc21` (atropisomer, axis not shown; (P)) [Example 40, (P)-7-fluoro-1-(5-fluoro-2-methoxy-4-((1R,3R)-3-(trifluoromethyl)cyclobutyl)phenyl)-N-(isoxazol-3-yl)-2-oxo-1,2-dihydroquinoline-6-sulfonamide], the “Hu CYP3A4 mRNA Induction (10 uM POC)” value was determined as 74.43%.

Regarding `COc1cc(C2CC(F)(F)C2)c(F)cc1-n1c(=O)ccc2cc(S(=O)(=O)Nc3ccon3)c(F)cc21` (atropisomer, axis not shown; (P)) [Example 41, (P)-1-(4-(3,3-difluorocyclobutyl)-5-fluoro-2-methoxyphenyl)-7-fluoro-N-(isoxazol-3-yl)-2-oxo-1,2-dihydroquinoline-6-sulfonamide], the “Hu CYP3A4 mRNA Induction (10 uM POC)” value is recorded as 52.8%.

As to `COc1cc(C23CC(C(F)(F)F)(C2)C3)c(F)cc1-n1c(=O)ccc2cc(S(=O)(=O)Nc3ccon3)ccc21` (atropisomer, axis not shown; (P)) [Example 42, (P)-1-(5-fluoro-2-methoxy-4-(3-(trifluoromethyl)bicyclo[1.1.1]pentan-1-yl)phenyl)-N-(isoxazol-3-yl)-2-oxo-1,2-dihydroquinoline-6-sulfonamide], the “Hu CYP3A4 mRNA Induction (10 uM POC)” value worked out at 19.25%.

As to `COc1cc([C@H]2C[C@H](C(F)(F)F)C2)c(F)cc1-n1c(=O)ccc2cc(S(=O)(=O)Nc3ncco3)ccc21` (atropisomer, axis not shown; (P)) [Example 43, (P)-1-(5-fluoro-2-methoxy-4-(3-(trifluoromethyl)cyclobutyl)phenyl)-N-(oxazol-2-yl)-2-oxo-1,2-dihydroquinoline-6-sulfonamide], the “Hu CYP3A4 mRNA Induction (10 uM POC)” value is 68.28%.

Consider `COc1cc([C@H]2C[C@H](C(F)(F)F)C2)c(F)cc1-n1c(=O)ccc2c(F)c(S(=O)(=O)Nc3ccon3)ccc21` (atropisomer, axis not shown; (P)) [Example 46, trans-(P)-5-fluoro-1-(5-fluoro-2-methoxy-4-(3-(trifluoromethyl)cyclobutyl)phenyl)-N-(isoxazol-3-yl)-2-oxo-1,2-dihydroquinoline-6-sulfonamide], for which the “Hu CYP3A4 mRNA Induction (10 uM POC)” value worked out at 6.6%.

With `COc1cc(C23CC(C(F)(F)F)(C2)C3)c(F)cc1-n1c(=O)ccc2cc(S(=O)(=O)Nc3ncccn3)ccc21` (atropisomer, axis not shown; (P)) [Example 47, (P)-1-(5-fluoro-2-methoxy-4-(3-(trifluoromethyl)bicyclo[1.1.1]pentan-1-yl)phenyl)-2-oxo-N-(pyrimidin-2-yl)-1,2-dihydroquinoline-6-sulfonamide], the “Hu CYP3A4 mRNA Induction (10 uM POC)” value came to 19.64%.

Regarding `COc1cc(C2CC(F)(F)C2)c(Cl)cc1-n1c(=O)ccc2cc(S(=O)(=O)Nc3ccon3)ccc21` (atropisomer, axis not shown; (P)) [Example 48, (P)-1-(5-chloro-4-(3,3-difluorocyclobutyl)-2-methoxyphenyl)-N-(isoxazol-3-yl)-2-oxo-1,2-dihydroquinoline-6-sulfonamide], the “Hu CYP3A4 mRNA Induction (10 uM POC)” value amounted to 110.2%.

With `COc1cc([C@H]2C[C@H](C(F)(F)F)C2)c(Cl)cc1-n1c(=O)ccc2cc(S(=O)(=O)Nc3ncco3)ccc21` (atropisomer, axis not shown; (P)) [Example 49, trans (P)-1-(5-chloro-2-methoxy-4-((1R,3R)-3-(trifluoromethyl)cyclobutyl)phenyl)-N-(oxazol-2-yl)-2-oxo-1,2-dihydroquinoline-6-sulfonamide], the “Hu CYP3A4 mRNA Induction (10 uM POC)” value is given as 64.94%.

On to `COc1cc([C@H]2C[C@@H](C(F)(F)F)C2)c(F)cc1-n1c(=O)ccc2cc(S(=O)(=O)Nc3ccon3)ccc21` (single isomer, unassigned) [Example 6, cis-(P)-1-(5-fluoro-2-methoxy-4-(3-(trifluoromethyl)cyclobutyl)phenyl)-N-(isoxazol-3-yl)-2-oxo-1,2-dihydroquinoline-6-sulfonamide], for which the “Hu CYP3A4 mRNA Induction (10 uM POC)” value was 83.89%.

As for `COc1cc([C@H]2C[C@H](C(F)(F)F)C2)c(Cl)cc1-n1c(=O)ccc2cc(S(=O)(=O)Nc3ccon3)ccc21` (single isomer, unassigned) [Example 12], the “Hu CYP3A4 mRNA Induction (10 uM POC)” value is given as 68.98%.

`COc1cc([C@H]2C[C@H](OC(F)(F)F)C2)c(F)cc1-n1c(=O)ccc2cc(S(=O)(=O)Nc3ccon3)ccc21` (single isomer, unassigned) [Example 45, trans-(P)-1-(5-fluoro-2-methoxy-4-(3-(trifluoromethoxy)cyclobutyl)phenyl)-N-(isoxazol-3-yl)-2-oxo-1,2-dihydroquinoline-6-sulfonamide]: the “Hu CYP3A4 mRNA Induction (10 uM POC)” value is 36.685%.

Turning to `COc1cc(C2CC2)c(F)cc1-n1c(=O)ccc2cc(S(=O)(=O)Nc3ccon3)ccc21` [Compound X, 1-(4-cyclopropyl-5-fluoro-2-methoxyphenyl)-N-(isoxazol-3-yl)-2-oxo-1,2-dihydroquinoline-6-sulfonamide, reference compound], the “Hu CYP3A4 mRNA Induction (10 uM POC)” value was determined as 84.31%.

The target in a further data set is Human Nav1.7 (Homo sapiens (Human), UniProt Q15858). In words: IonWorks Barracuda (IWB) automated patch clamp assay. The class given is cell-based. As to conditions: human Nav1.7 in HEK cells, population patch-clamp, state- and use-dependent voltage protocol; read-out: hNaV1.7 IWB-U IC50. Here is the method: IonWorks Barracuda (IWB) Automated Patch Clamp Assay (Same Protocol for Both Human and Mouse)
Sequence of Human Nav1.7 (Q15858 whole entry): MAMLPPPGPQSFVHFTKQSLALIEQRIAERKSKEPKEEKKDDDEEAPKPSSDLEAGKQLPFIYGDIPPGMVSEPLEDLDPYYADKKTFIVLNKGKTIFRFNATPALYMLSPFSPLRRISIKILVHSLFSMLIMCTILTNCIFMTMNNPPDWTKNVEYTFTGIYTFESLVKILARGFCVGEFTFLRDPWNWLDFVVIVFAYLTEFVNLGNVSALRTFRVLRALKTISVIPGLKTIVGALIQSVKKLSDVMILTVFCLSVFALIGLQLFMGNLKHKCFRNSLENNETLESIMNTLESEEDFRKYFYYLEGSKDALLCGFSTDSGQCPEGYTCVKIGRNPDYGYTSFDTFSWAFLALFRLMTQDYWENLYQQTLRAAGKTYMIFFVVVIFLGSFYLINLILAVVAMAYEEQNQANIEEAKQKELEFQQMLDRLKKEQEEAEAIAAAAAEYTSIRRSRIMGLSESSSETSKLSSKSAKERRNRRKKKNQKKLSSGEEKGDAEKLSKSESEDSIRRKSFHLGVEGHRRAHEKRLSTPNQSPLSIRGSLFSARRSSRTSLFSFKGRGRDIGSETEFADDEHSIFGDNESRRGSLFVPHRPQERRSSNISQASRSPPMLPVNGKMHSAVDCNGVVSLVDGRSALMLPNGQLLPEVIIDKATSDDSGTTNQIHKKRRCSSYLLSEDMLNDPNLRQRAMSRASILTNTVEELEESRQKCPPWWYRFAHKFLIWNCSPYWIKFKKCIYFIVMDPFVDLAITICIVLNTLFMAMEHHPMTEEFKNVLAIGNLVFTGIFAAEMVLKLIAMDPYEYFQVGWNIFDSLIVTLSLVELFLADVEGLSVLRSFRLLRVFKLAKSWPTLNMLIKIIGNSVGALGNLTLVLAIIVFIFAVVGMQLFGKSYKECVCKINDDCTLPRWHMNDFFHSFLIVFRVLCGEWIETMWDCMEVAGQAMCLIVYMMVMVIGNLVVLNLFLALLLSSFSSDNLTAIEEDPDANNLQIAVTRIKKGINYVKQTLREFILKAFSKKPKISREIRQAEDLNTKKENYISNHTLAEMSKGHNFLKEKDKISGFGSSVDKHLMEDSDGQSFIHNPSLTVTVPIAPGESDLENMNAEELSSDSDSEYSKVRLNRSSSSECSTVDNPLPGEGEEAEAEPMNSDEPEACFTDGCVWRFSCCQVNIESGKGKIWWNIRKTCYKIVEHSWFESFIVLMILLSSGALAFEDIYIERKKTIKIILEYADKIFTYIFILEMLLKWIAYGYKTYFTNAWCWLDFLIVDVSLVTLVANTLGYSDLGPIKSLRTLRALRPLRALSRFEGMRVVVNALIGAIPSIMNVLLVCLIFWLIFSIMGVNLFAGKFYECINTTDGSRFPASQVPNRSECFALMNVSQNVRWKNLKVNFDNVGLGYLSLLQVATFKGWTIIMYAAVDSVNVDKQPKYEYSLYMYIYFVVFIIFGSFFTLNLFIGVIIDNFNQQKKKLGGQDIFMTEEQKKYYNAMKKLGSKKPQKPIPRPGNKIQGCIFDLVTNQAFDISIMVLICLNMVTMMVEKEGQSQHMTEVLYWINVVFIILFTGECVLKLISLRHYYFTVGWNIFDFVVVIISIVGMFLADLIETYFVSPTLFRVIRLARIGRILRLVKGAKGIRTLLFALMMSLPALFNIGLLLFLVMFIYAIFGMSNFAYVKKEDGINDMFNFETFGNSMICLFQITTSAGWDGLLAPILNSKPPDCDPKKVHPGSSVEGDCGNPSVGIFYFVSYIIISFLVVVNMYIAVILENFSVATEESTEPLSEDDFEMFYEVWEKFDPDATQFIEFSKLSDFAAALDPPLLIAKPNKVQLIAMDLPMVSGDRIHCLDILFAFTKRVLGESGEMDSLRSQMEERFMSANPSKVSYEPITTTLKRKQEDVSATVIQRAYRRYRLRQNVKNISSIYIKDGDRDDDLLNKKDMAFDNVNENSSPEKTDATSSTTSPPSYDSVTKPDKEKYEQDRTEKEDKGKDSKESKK
Human Nav1.7 currents were recorded in population patch-clamp mode with the IWB automated electrophysiology system (Molecular Devices, LLC, Sunnyvale, CA). Spiking HEK cells (without Kir2.1 transfection) were cultured and prepared for recordings as previously described for IonWorks Quattro testing^1. The external solution consisted of the following (in mM): NaCl 140, KCl 5, CaCl2 2, MgCl2 1, HEPES 10, and glucose 11, pH 7.4, with N-methyl-D-glucamine at 320 mOsmol. […] From a holding potential of −110 mV, currents were elicited by a train of 26 depolarizations of 150 ms duration to −20 mV at a frequency of 5 Hz. Cells were then clamped to −20 mV for a period of 4 minutes in the presence of a single concentration of test compound. Following this compound incubation period, cells were clamped to −110 mV for three seconds to recover unbound channels and put through the same 26 pulse voltage protocol as above. Peak inward current during the 26th pulse to −20 mV in the presence of compound was divided by the peak inward current evoked by the 26th pulse to −20 mV in the absence of compound to determine percent inhibition. Concentration-response curves of percent inhibition as a function of concentration were generated to calculate IC50 values as described in Kornecook, T. J.; Yin, R.; Altmann, S.; et al. Pharmacologic Characterization of AMG8379, a Potent and Selective Small Molecule Sulfonamide Antagonist of the Voltage-Gated Sodium Channel NaV1. 7.
The potency of the compounds of the present invention were evaluated on human Nav1.7 channels using the above described IonWorks Barracuda automated electrophysiology platform that evaluates the ability of compounds to block sodium conductance through Nav1.7 channels. A voltage-protocol that prosecutes both state-dependent as well as use-dependent inhibition was used as these modes of action are thought to be more relevant for the native state of Nav1.7 channels in pain sensing neurons in vivo.
One may read the IC50 as the concentration that inhibits the measured activity by half. As for `COc1cc(C2CC(C(F)(F)F)C2)c(F)cc1-n1c(=O)ccc2cc(S(=O)(=O)Nc3ccon3)ccc21` (atropisomer, axis not shown; (P)) [Example 6, cis-(P)-1-(5-fluoro-2-methoxy-4-(3-(trifluoromethyl)cyclobutyl)phenyl)-N-(isoxazol-3-yl)-2-oxo-1,2-dihydroquinoline-6-sulfonamide], the IC50 amounted to 11 nM.

As for `COc1cc(C2CC(C(F)(F)F)C2)c(Cl)cc1-n1c(=O)ccc2cc(S(=O)(=O)Nc3ccon3)ccc21` (atropisomer, axis not shown; (P)) [Example 12, cis-(P)-1-(5-chloro-2-methoxy-4-((1S,3S)-3-(trifluoromethyl)cyclobutyl)phenyl)-N-(isoxazol-3-yl)-2-oxo-1,2-dihydroquinoline-6-sulfonamide], the concentration for half-maximal inhibition (IC50) came out at 7 nM.
